From PubChem BioAssay (NCI)
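These data come from cells grown in 96-well plates and exposed to compound for 48 hours at five concentrations. GI50: concentration for 50% inhibition of growth. The concentration for full growth arrest is given as TGI.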

Key:
Experiment in all cases: NCI tumour cell line growth inhibition, 48 h
SK-MEL-5 melanoma = test system: SK-MEL-5 melanoma
UO-31 renal = test system: UO-31 renal
DU-145 prostate = test system: DU-145 prostate
SF-268 CNS = test system: SF-268 CNS
MCF7 breast = test system: MCF7 breast
CCRF-CEM leukemia = test system: CCRF-CEM leukemia
BT-549 breast = test system: BT-549 breast
MDA-MB-435 = test system: MDA-MB-435
IGROV1 ovarian = test system: IGROV1 ovarian
SN12C renal = test system: SN12C renal
HCT-116 colon = test system: HCT-116 colon
HCT-15 colon = test system: HCT-15 colon
SK-MEL-2 melanoma = test system: SK-MEL-2 melanoma
K-562 leukemia = test system: K-562 leukemia
M14 melanoma = test system: M14 melanoma
HCC-2998 colon = test system: HCC-2998 colon
OVCAR-4 ovarian = test system: OVCAR-4 ovarian
MDA-MB-231 breast = test system: MDA-MB-231 breast
ACHN renal = test system: ACHN renal
A549 NSCLC = test system: A549 NSCLC
SNB-75 CNS = test system: SNB-75 CNS
MOLT-4 leukemia = test system: MOLT-4 leukemia
SR leukemia = test system: SR leukemia
UACC-257 melanoma = test system: UACC-257 melanoma
SNB-19 CNS = test system: SNB-19 CNS
SK-MEL-28 melanoma = test system: SK-MEL-28 melanoma
KM12 colon = test system: KM12 colon
CAKI-1 renal = test system: CAKI-1 renal
OVCAR-3 ovarian = test system: OVCAR-3 ovarian
HL-60(TB) leukemia = test system: HL-60(TB) leukemia
SW-620 colon = test system: SW-620 colon
A498 renal = test system: A498 renal
COLO 205 colon = test system: COLO 205 colon
T-47D breast = test system: T-47D breast
TK-10 renal = test system: TK-10 renal
HOP-62 NSCLC = test system: HOP-62 NSCLC
NCI-H460 lung = test system: NCI-H460 lung
OVCAR-5 ovarian = test system: OVCAR-5 ovarian
RXF 393 renal = test system: RXF 393 renal
LOX IMVI melanoma = test system: LOX IMVI melanoma
SK-OV-3 ovarian = test system: SK-OV-3 ovarian
EKVX NSCLC = test system: EKVX NSCLC
NCI/ADR-RES ovarian = test system: NCI/ADR-RES ovarian
786-0 renal = test system: 786-0 renal
NCI-H226 lung = test system: NCI-H226 lung
SF-539 CNS = test system: SF-539 CNS
HOP-92 NSCLC = test system: HOP-92 NSCLC
UACC-62 melanoma = test system: UACC-62 melanoma
PC-3 prostate = test system: PC-3 prostate
SF-295 CNS = test system: SF-295 CNS
OVCAR-8 ovarian = test system: OVCAR-8 ovarian
HS 578T breast = test system: HS 578T breast
MALME-3M melanoma = test system: MALME-3M melanoma
RPMI-8226 leukemia = test system: RPMI-8226 leukemia
U251 CNS = test system: U251 CNS
HT29 colon = test system: HT29 colon
NCI-H522 lung = test system: NCI-H522 lung

## C[C@@H]1Cc2c(ccc3[nH]ncc23)[C@@H](c2ccc(NC3CN(CCCF)C3)cn2)N1CC(F)(F)F
SK-MEL-5 melanoma
  GI50: 14.3 µM
  TGI: 28.2 µM
UO-31 renal
  GI50: 12.6 µM
  TGI: 26.8 µM
DU-145 prostate
  GI50: 35.2 µM
  TGI: > 100 µM
SF-268 CNS
  GI50: 22.3 µM
  TGI: 79.4 µM
MCF7 breast
  GI50: < 0.01 µM
  TGI: 16.1 µM
CCRF-CEM leukemia
  GI50: 21.1 µM
  TGI: 67.3 µM
BT-549 breast
  GI50: 16 µM
  TGI: 37.2 µM
MDA-MB-435
  GI50: 17.2 µM
  TGI: 34.8 µM
IGROV1 ovarian
  GI50: 20.2 µM
  TGI: 62.4 µM
SN12C renal
  GI50: 24 µM
  TGI: 79 µM
HCT-116 colon
  GI50: 14.5 µM
  TGI: 28.2 µM
HCT-15 colon
  GI50: 16.7 µM
  TGI: 35 µM
SK-MEL-2 melanoma
  GI50: 19 µM
  TGI: 42.9 µM
K-562 leukemia
  GI50: 19.4 µM
  TGI: 54.9 µM
M14 melanoma
  GI50: 16.5 µM
  TGI: 32.2 µM
HCC-2998 colon
  GI50: 17.2 µM
  TGI: 33.5 µM
OVCAR-4 ovarian
  GI50: 32.9 µM
  TGI: > 100 µM
MDA-MB-231 breast
  GI50: 17 µM
  TGI: 34.5 µM
ACHN renal
  GI50: 22.2 µM
  TGI: 53 µM
A549 NSCLC
  GI50: 30.8 µM
  TGI: > 100 µM
SNB-75 CNS
  GI50: 12.7 µM
  TGI: > 100 µM
MOLT-4 leukemia
  GI50: 19.6 µM
  TGI: > 100 µM
SR leukemia
  GI50: 16.8 µM
  TGI: 53.1 µM
UACC-257 melanoma
  GI50: 17.9 µM
  TGI: 38.3 µM
SNB-19 CNS
  GI50: 28.3 µM
  TGI: > 100 µM
SK-MEL-28 melanoma
  GI50: 16.5 µM
  TGI: 32.1 µM
KM12 colon
  GI50: 31.3 µM
  TGI: > 100 µM
CAKI-1 renal
  GI50: 15.9 µM
  TGI: 37.1 µM
OVCAR-3 ovarian
  GI50: 20.3 µM
  TGI: 57.8 µM
HL-60(TB) leukemia
  GI50: 15.7 µM
  TGI: 43.4 µM
SW-620 colon
  GI50: 17.5 µM
  TGI: 34.3 µM
A498 renal
  GI50: 15.6 µM
  TGI: 36.6 µM
COLO 205 colon
  GI50: 16.5 µM
  TGI: 35.5 µM
T-47D breast
  GI50: < 0.01 µM
  TGI: 23.2 µM
TK-10 renal
  GI50: 17.9 µM
  TGI: 44.7 µM
HOP-62 NSCLC
  GI50: 15.3 µM
  TGI: 34.8 µM
NCI-H460 lung
  GI50: 18.8 µM
  TGI: 37.8 µM
OVCAR-5 ovarian
  GI50: 26.4 µM
  TGI: > 100 µM
RXF 393 renal
  GI50: 6.8 µM
  TGI: 22.9 µM
LOX IMVI melanoma
  GI50: 16.1 µM
  TGI: 31.4 µM
SK-OV-3 ovarian
  GI50: 14.3 µM
  TGI: 37.1 µM
EKVX NSCLC
  GI50: 28.9 µM
  TGI: > 100 µM
NCI/ADR-RES ovarian
  GI50: 32.3 µM
  TGI: > 100 µM
786-0 renal
  GI50: 14.4 µM
  TGI: 28.4 µM
NCI-H226 lung
  GI50: 39 µM
  TGI: > 100 µM
SF-539 CNS
  GI50: 16.9 µM
  TGI: 32.5 µM
HOP-92 NSCLC
  GI50: 3.1 µM
  TGI: 20.1 µM
UACC-62 melanoma
  GI50: 15.2 µM
  TGI: 30.5 µM
PC-3 prostate
  GI50: 15.6 µM
  TGI: 47.8 µM
SF-295 CNS
  GI50: 18 µM
  TGI: 36.9 µM
OVCAR-8 ovarian
  GI50: 23.5 µM
  TGI: 69.8 µM
HS 578T breast
  GI50: 15 µM
  TGI: 41 µM
MALME-3M melanoma
  GI50: 12.4 µM
  TGI: 26.6 µM
RPMI-8226 leukemia
  GI50: 18.6 µM
  TGI: 47.4 µM
U251 CNS
  GI50: 15.8 µM
  TGI: 36.7 µM
HT29 colon
  GI50: 13.7 µM
  TGI: 43.2 µM
NCI-H522 lung
  GI50: 20.2 µM
  TGI: 45.7 µM
